According to US8952024B2, “Herbicidal pyrimidone derivatives” (E I du Pont de Nemours and Company, priority 2009, dated 2015):

Key:
Format in all cases: in vivo
[1] = test system: barnyardgrass (Echinochloa crus-galli); assay: Test A pre-/postemergence plant response
Outline: (§1)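 Visually rated 0–100 injury (100 = complete control) versus untreated plants, ~10 days in greenhouse. Application pre- (soil spray, loam/sand) and postemergence (2–10 cm, 1–2 leaf stage), same timepoint.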

[2] = test system: corn (Zea mays); assay: Test A pre-/postemergence plant response
Outline: as §1

[3] = test system: giant foxtail (Setaria faberii); assay: Test A pre-/postemergence plant response
Outline: as §1

[4] = test system: large crabgrass (Digitaria sanguinalis); assay: Test A pre-/postemergence plant response
Outline: as §1

[5] = test system: morningglory (Ipomoea spp.); assay: Test A pre-/postemergence plant response
Outline: as §1

[6] = test system: pigweed (Amaranthus retroflexus); assay: Test A pre-/postemergence plant response
Outline: as §1

[7] = test system: velvetleaf (Abutilon theophrasti); assay: Test A pre-/postemergence plant response
Outline: as §1

[8] = test system: wheat (Triticum aestivum); assay: Test A pre-/postemergence plant response
Outline: as §1

[9] = test system: cocklebur (Xanthium strumarium); assay: Test B pre-/postemergence plant response; details: for Cocklebur plant response rating (0 to 100 scale): 62 g ai/ha, 0 is no effect, 13 to 15 days
Outline: (§2)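 Each species received compound formulated in non-phytotoxic solvent with surfactant, either at planting into a loam and sand blend or as a foliar spray once plants reached 2 to 18 cm in peat-based medium. Plants stayed in the greenhouse 13 to 15 days before visual evaluation against controls, scored 0 (no effect) to 100 (complete control).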

[10] = test system: morningglory (Ipomoea coccinea); assay: Test B pre-/postemergence plant response; details: for Morningglory plant response rating (0 to 100 scale): 62 g ai/ha, 0 is no effect, 13 to 15 days
Outline: as §2

[11] = test system: soybean (Glycine max); assay: Test B pre-/postemergence plant response; details: for Soybean plant response rating (0 to 100 scale): 62 g ai/ha, postemergence, 0 is no effect, 100 is complete control, 13 to 15 days; for Plant response rating, Soybean: Postemergence, scale 0 to 100 (0 no effect, 100 complete control)
Outline: as §2

[12] = test system: wheat (Triticum aestivum); assay: Test B pre-/postemergence plant response; details: for Wheat plant response rating (0 to 100 scale): 62 g ai/ha, postemergence, 0 is no effect, 100 is complete control, 13 to 15 days; for Plant response rating, Wheat: Postemergence, scale 0 to 100 (0 no effect, 100 complete control)
Outline: as §2

[13] = Postemergence, 125 g ai/ha, 0 to 100 scale where 0 is no effect and 100 is complete control
[14] = Postemergence, 500 g ai/ha, 0 to 100 scale, 0 = no effect, 100 = complete control, approx. ten days
[15] = Preemergence, 125 g ai/ha, 0 to 100 scale, 0 = no effect, 100 = complete control
[16] = Preemergence, 500 g ai/ha, visual injury, 0 to 100 scale (0 no effect, 100 complete control), approx. ten days
[17] = 31 g ai/ha, postemergence, scale 0 to 100, 0 is no effect, 100 is complete control
[18] = postemergence, 100 is complete control
[19] = Postemergence, 125 g ai/ha, scale 0 to 100 (0 no effect, 100 complete control)
[20] = Postemergence, 250 g ai/ha, scale 0 to 100 (0 no effect, 100 complete control)

O=C1CCCC(O)=C1C(=O)c1cnc(-c2ccsc2)n(CC2CCCO2)c1=O (stereo not shown) [Compound 98]
Plant response rating, Barnyardgrass [1, 13]: 80 | Plant response rating, Barnyardgrass [1, 14]: 90 | Plant response rating, Barnyardgrass [1, 15]: 0 | Plant response rating, Barnyardgrass [1, 16]: 60 | Plant response rating, Corn [2, 13]: 0 | Plant response rating, Corn [2, 14]: 60 | Plant response rating, Corn [2, 15]: 0 | Plant response rating, Corn [2, 16]: 0 | Plant response rating, Foxtail, Giant [3, 13]: 70 | Plant response rating, Foxtail, Giant [3, 14]: 90 | Plant response rating, Foxtail, Giant [3, 15]: 40 | Plant response rating, Foxtail, Giant [3, 16]: 80 | Plant response rating, Crabgrass, Large [4, 13]: 90 | Plant response rating, Crabgrass, Large [4, 14]: 100 | Plant response rating, Crabgrass, Large [4, 15]: 90 | Plant response rating, Crabgrass, Large [4, 16]: 100 | Plant response rating, Morningglory [5, 13]: 100 | Plant response rating, Morningglory [5, 14]: 100 | Plant response rating, Morningglory [5, 15]: 70 | Plant response rating, Morningglory [5, 16]: 80 | Plant response rating, Pigweed [6, 13]: 100 | Plant response rating, Pigweed [6, 14]: 100 | Plant response rating, Pigweed [6, 15]: 100 | Plant response rating, Pigweed [6, 16]: 100 | Plant response rating, Velvetleaf [7, 13]: 100 | Plant response rating, Velvetleaf [7, 14]: 100 | Plant response rating, Velvetleaf [7, 15]: 90 | Plant response rating, Velvetleaf [7, 16]: 100 | Plant response rating, Wheat [8, 13]: 0 | Plant response rating, Wheat [8, 14]: 20 | Plant response rating, Wheat [8, 15]: 0 | Plant response rating, Wheat [8, 16]: 0 | Plant response rating, Cocklebur [9, 17]: 98 | Cocklebur plant response rating (0 to 100 scale) [9, 18]: 100 | Plant response rating, Cocklebur [9, 19]: 100 | Plant response rating, Cocklebur [9, 20]: 100 | Plant response rating, Morningglory [10, 17]: 70 | Morningglory plant response rating (0 to 100 scale) [10, 18]: 85 | Plant response rating, Morningglory [10, 19]: 100 | Plant response rating, Morningglory [10, 20]: 100 | Soybean plant response rating (0 to 100 scale) [11]: 98 | Plant response rating, Soybean ([11]; 125 g ai/ha): 98 | Plant response rating, Soybean ([11]; 250 g ai/ha): 100 | Wheat plant response rating (0 to 100 scale) [12]: 5 | Plant response rating, Wheat ([12]; 125 g ai/ha): 5 | Plant response rating, Wheat ([12]; 250 g ai/ha): 20

O=C1CCCC(O)=C1C(=O)c1cnc(-c2ccsc2)n(C2CCCCC2)c1=O [Compound 99]
Plant response rating, Barnyardgrass [1, 13]: 90 | Plant response rating, Barnyardgrass [1, 14]: 90 | Plant response rating, Barnyardgrass [1, 15]: 10 | Plant response rating, Barnyardgrass [1, 16]: 90 | Plant response rating, Corn [2, 13]: 0 | Plant response rating, Corn [2, 14]: 20 | Plant response rating, Corn [2, 15]: 0 | Plant response rating, Corn [2, 16]: 0 | Plant response rating, Foxtail, Giant [3, 13]: 80 | Plant response rating, Foxtail, Giant [3, 14]: 90 | Plant response rating, Foxtail, Giant [3, 15]: 40 | Plant response rating, Foxtail, Giant [3, 16]: 80 | Plant response rating, Crabgrass, Large [4, 13]: 90 | Plant response rating, Crabgrass, Large [4, 14]: 100 | Plant response rating, Crabgrass, Large [4, 15]: 60 | Plant response rating, Crabgrass, Large [4, 16]: 100 | Plant response rating, Morningglory [5, 13]: 100 | Plant response rating, Morningglory [5, 14]: 100 | Plant response rating, Morningglory [5, 16]: 80 | Plant response rating, Pigweed [6, 13]: 100 | Plant response rating, Pigweed [6, 14]: 100 | Plant response rating, Pigweed [6, 15]: 90 | Plant response rating, Pigweed [6, 16]: 100 | Plant response rating, Velvetleaf [7, 13]: 100 | Plant response rating, Velvetleaf [7, 14]: 100 | Plant response rating, Velvetleaf [7, 15]: 80 | Plant response rating, Velvetleaf [7, 16]: 100 | Plant response rating, Wheat [8, 13]: 0 | Plant response rating, Wheat [8, 14]: 0 | Plant response rating, Wheat [8, 15]: 0 | Plant response rating, Wheat [8, 16]: 0 | Plant response rating, Cocklebur [9, 17]: 95 | Cocklebur plant response rating (0 to 100 scale) [9, 18]: 100 | Plant response rating, Cocklebur [9, 19]: 100 | Plant response rating, Cocklebur [9, 20]: 100 | Plant response rating, Morningglory [10, 17]: 100 | Morningglory plant response rating (0 to 100 scale) [10, 18]: 100 | Plant response rating, Morningglory [10, 19]: 100 | Plant response rating, Morningglory [10, 20]: 100 | Soybean plant response rating (0 to 100 scale) [11]: 100 | Plant response rating, Soybean ([11]; 125 g ai/ha): 100 | Plant response rating, Soybean ([11]; 250 g ai/ha): 100 | Wheat plant response rating (0 to 100 scale) [12]: 5 | Plant response rating, Wheat ([12]; 125 g ai/ha): 5 | Plant response rating, Wheat ([12]; 250 g ai/ha): 5
